{"source": "patent US10561638B2", "about": "“Methods for treating dependence” (Biotie Therapies, Inc., priority 2007, dated 2020)", "key": {"[1]": {"system": "tissue norepinephrine and dopamine levels", "assay": "Tissue catecholamines in beagle dogs, 10, 30, 60 mg/kg/day for 4.5 days", "assay_type": "in vivo", "method": "This study was performed to determine the dopamine and norepinephrine concentrations in kidney medulla and kidney cortex from dogs dosed with nepicastat. Adult male beagle dogs were randomly assigned to four groups of 8 dogs per group and dosed by oral administration with nepicastat. Nepicastat was delivered in doses of 5, 15 and 30 mg/kg placed in single capsules. Vehicle was an empty capsule. Each dog received 2 doses daily, morning and afternoon (8-10 hours apart) for four days. On the fifth day, each dog received a single dose in the morning and the dogs were euthanized six hours after the last dose. Samples of kidney medulla and kidney cortex were rapidly harvested, weighed, placed in cold 0.4 M perchloric acid, frozen in liquid nitrogen and stored at −70° C.\nTo quantitate concentrations of norepinephrine (NE) and dopamine (D), each tissue was homogenized by brief sonication in 0.4 M perchloric acid. After sonication, the homogenates were centrifuged at 13,000 rpm in a microfuge for 30 minutes at 4° C. An aliquot of each supernatant was removed and spiked with 3,4-dihydroxybenzylamine (DHBA) as internal standard. The extract from each sample was subjected to HPLC separation using electrochemical detection. The method has a quantitation limit of 2.0 ng/mL and a linear range of 2.0 ng/mL to 400 ng/mL for each analyte.\nThirty-two male beagle dogs, weighing 10-12 kg, were randomly assigned to one of the following 4 treatment groups (n=8 per group): nepicastat at 0 mg/kg/day (placebo), 10 mg/kg/day (5 mg/kg b.i.d.), 30 mg/kg (15 mg/kg b.i.d.), or 60 mg/kg/day (30 mg/kg b.i.d.). Dog numbers 1-16 were assigned as dose group A and dog numbers 17-32 as dose group B. The terminal surgery for tissue harvest was performed over 2 days with 16 animals studied per day. Two or 3 days before the first compound administration each dog was weighed and skin regions overlying both cephalic, saphenous and jugular veins were shaved. Dosing consisted of oral administration of one capsule with the second given 8-10 hr later. Dogs were dosed as scheduled on days 1-3. On day 4, prior to the AM dose, 3 ml of blood were obtained from a jugular vein for determination of baseline plasma compound levels. The dog was then administered the AM dose, and at 1, 2, 4 and 8 hr following the dose additional 3 ml blood samples were collected for determination of plasma compound levels. Blood samples were put into tubes containing heparin, centrifuged at 4° C. and stored at −20° C. until analysis. The PM dose was then administered as scheduled. The AM dose was administered as scheduled on the days of surgery. Approximately 6 hr after the AM dose, a final 3 ml blood sample was taken from the jugular vein for determination of plasma compound levels. The dog was then anesthetized with pentobarbital Na (˜40 mg/kg), given i.v. in a cephalic or saphenous vein, and delivered to the necropsy room where an additional dose of pentobarbital Na was given (˜80 mg/kg, iv). The left ventricle, renal artery, kidney, renal medulla, renal cortex and cerebral cortex were then rapidly harvested, weighed, put into 2 ml iced 0.4M perchloric acid, frozen in liquid nitrogen and stored at −70° C. until analysis for catecholamines by HPLC using electrochemical detection. All tissue samples were divided into 2 portions, the second of which were immediately frozen in liquid nitrogen and stored at −70° C. for determination of tissue compound levels. A third transmural sample taken from the left ventricle was immediately frozen in liquid nitrogen and stored at −70° C. for use in receptor binding studies.\nVentricles were homogenized in 50 mM Tris-HCl, 5 mM Na2EDTA buffer (pH 7.4 at 4° C.) using a Polytron P-10 tissue disrupter (setting 10, 2×15 second bursts). Homogenates were centrifuged at 500×g for 10 minutes and the supernatants stored on ice. The pellets were washed by resuspension and centrifugation at 500×g and the supernatants combined. […]"}, "thyroid uptake of 123I": {"system": "thyroid uptake of 123I", "assay": "Thyroid uptake of 123I in humans", "assay_type": "in vivo, human"}, "[2]": {"settings": "in vivo", "method": "The pharmacokinetics of nepicastat after a single 40 mg dose was compared in men and women."}, "[3]": {"system": "normotensive Wistar-Kyoto rats", "assay": "Blood pressure in conscious, restrained Wistar-Kyoto rats", "assay_type": "in vivo", "settings": "10 mg/kg", "source_text": "To summarize together, nepicastat causes a decrease in blood pressure in both SHRs and normotensive rats, though the antihypertensive effect is more pronounced in SHRs."}, "[4]": {"system": "plasma dopamine/norepinephrine ratio, urinary dopamine", "assay": "Plasma and urinary catecholamines in normal volunteers", "assay_type": "in vivo, human", "method": "Nepicastat reduces the conversion of dopamine to norepinephrine. Basic tests for nepicastat activity measure the levels of plasma or urinary dopamine or the ratio of dopamine to norepinephrine. Nepicastat treatment can increase plasma or urinary levels of dopamine or increase the dopamine/norepinephrine ratio in plasma or urine.\nShown in FIG. 5, are the levels in urinary dopamine levels in normal volunteers after 24 hour treatment with nepicastat.\nUrinary dopamine levels increased after 10 days of dosing with both 40 mg and 200 mg of nepicastat."}, "[5]": {"settings": "renal medulla, 60 mg/kg/day, marginal (0.05<p<0.10)"}}}
{"smiles": "Cl.NCc1c[nH]c(=S)n1[C@H]1CCc2c(F)cc(F)cc2C1", "note": "[nepicastat, (S)-5-Aminomethyl-1-(5,7-difluoro-1,2,3,4-tetrahydronaphth-2-yl)-2,3-dihydro-2-thioxo-1H-imidazole hydrochloride]", "values": [{"measurement": "increase in dopamine", "setting": "[1]; cerebral cortex, 10 mg/kg/day", "value": 632, "unit": "%"}, {"measurement": "increase in dopamine/norepinephrine ratio", "setting": "[1]; cerebral cortex, 10 mg/kg/day", "value": 531, "unit": "%"}, {"measurement": "decrease in norepinephrine", "setting": "[1]; cerebral cortex, 30 mg/kg/day", "value": 63, "unit": "%"}, {"measurement": "increase in dopamine/norepinephrine ratio", "setting": "[1]; cerebral cortex, 30 mg/kg/day", "value": 86, "unit": "%"}, {"measurement": "increase in dopamine", "setting": "[1]; cerebral cortex, 30 mg/kg/day, marginal (0.05<p<0.10)", "value": 174, "unit": "%"}, {"measurement": "increase in dopamine", "setting": "[1]; cerebral cortex, 60 mg/kg/day", "value": 411, "unit": "%"}, {"measurement": "increase in dopamine/norepinephrine ratio", "setting": "[1]; cerebral cortex, 60 mg/kg/day", "value": 612, "unit": "%"}, {"measurement": "norepinephrine levels vs placebo", "setting": "[1]; cerebral cortex, 10 and 60 mg/kg/day", "value": "not significantly (p>0.01) affected"}, {"measurement": "dose at which the plateau in DBH inhibition response begins", "setting": "[1]; heart, renal artery and kidney", "value": 10, "unit": "mg/kg/day"}, {"measurement": "decrease in norepinephrine", "setting": "[1]; left ventricle, 10 mg/kg/day", "value": 85, "unit": "%"}, {"measurement": "increase in dopamine/norepinephrine ratio", "setting": "[1]; left ventricle, 10 mg/kg/day", "value": 852, "unit": "%"}, {"measurement": "decrease in norepinephrine", "setting": "[1]; left ventricle, 30 mg/kg/day", "value": 58, "unit": "%"}, {"measurement": "increase in dopamine/norepinephrine ratio", "setting": "[1]; left ventricle, 30 mg/kg/day", "value": 279, "unit": "%"}, {"measurement": "decrease in norepinephrine", "setting": "[1]; left ventricle, 60 mg/kg/day", "value": 79, "unit": "%"}, {"measurement": "increase in dopamine/norepinephrine ratio", "setting": "[1]; left ventricle, 60 mg/kg/day", "value": 607, "unit": "%"}, {"measurement": "dopamine levels vs placebo", "setting": "[1]; left ventricle, 10, 30 and 60 mg/kg/day", "value": "No significant changes"}, {"measurement": "decrease in norepinephrine", "setting": "[1]; renal artery, 10 mg/kg/day", "value": 86, "unit": "%"}, {"measurement": "increase in dopamine", "setting": "[1]; renal artery, 10 mg/kg/day", "value": 180, "unit": "%"}, {"measurement": "increase in dopamine/norepinephrine ratio", "setting": "[1]; renal artery, 10 mg/kg/day", "value": 1711, "unit": "%"}, {"measurement": "decrease in norepinephrine", "setting": "[1]; renal artery, 30 mg/kg/day", "value": 81, "unit": "%"}, {"measurement": "increase in dopamine", "setting": "[1]; renal artery, 30 mg/kg/day", "value": 273, "unit": "%"}, {"measurement": "increase in dopamine/norepinephrine ratio", "setting": "[1]; renal artery, 30 mg/kg/day", "value": 1767, "unit": "%"}, {"measurement": "decrease in norepinephrine", "setting": "[1]; renal artery, 60 mg/kg/day", "value": 85, "unit": "%"}, {"measurement": "increase in dopamine", "setting": "[1]; renal artery, 60 mg/kg/day", "value": 268, "unit": "%"}, {"measurement": "increase in dopamine/norepinephrine ratio", "setting": "[1]; renal artery, 60 mg/kg/day", "value": 1944, "unit": "%"}, {"measurement": "decrease in norepinephrine", "setting": "[1]; renal cortex, 10 mg/kg/day", "value": 86, "unit": "%"}, {"measurement": "increase in dopamine", "setting": "[1]; renal cortex, 10 mg/kg/day", "value": 156, "unit": "%"}, {"measurement": "increase in dopamine/norepinephrine ratio", "setting": "[1]; renal cortex, 10 mg/kg/day", "value": 1653, "unit": "%"}, {"measurement": "decrease in norepinephrine", "setting": "[1]; renal cortex, 30 mg/kg/day", "value": 66, "unit": "%"}, {"measurement": "increase in dopamine", "setting": "[1]; renal cortex, 30 mg/kg/day", "value": 502, "unit": "%"}, {"measurement": "increase in dopamine/norepinephrine ratio", "setting": "[1]; renal cortex, 30 mg/kg/day", "value": 1440, "unit": "%"}, {"measurement": "decrease in norepinephrine", "setting": "[1]; renal cortex, 60 mg/kg/day", "value": 85, "unit": "%"}, {"measurement": "increase in dopamine", "setting": "[1]; renal cortex, 60 mg/kg/day", "value": 208, "unit": "%"}, {"measurement": "increase in dopamine/norepinephrine ratio", "setting": "[1]; renal cortex, 60 mg/kg/day", "value": 1693, "unit": "%"}, {"measurement": "decrease in norepinephrine", "setting": "[1]; renal medulla, 10 mg/kg/day", "value": 72, "unit": "%"}, {"measurement": "increase in dopamine/norepinephrine ratio", "setting": "[1]; renal medulla, 10 mg/kg/day", "value": 555, "unit": "%"}, {"measurement": "increase in dopamine", "setting": "[1]; renal medulla, 10 mg/kg/day, marginal (0.05<p<0.10)", "value": 150, "unit": "%"}, {"measurement": "increase in dopamine", "setting": "[1]; renal medulla, 30 mg/kg/day", "value": 522, "unit": "%"}, {"measurement": "increase in dopamine/norepinephrine ratio", "setting": "[1]; renal medulla, 30 mg/kg/day", "value": 636, "unit": "%"}, {"measurement": "increase in dopamine/norepinephrine ratio", "setting": "[1]; renal medulla, 60 mg/kg/day", "value": 677, "unit": "%"}, {"measurement": "decrease in norepinephrine", "setting": "[1]; [5]", "value": 69, "unit": "%"}, {"measurement": "increase in dopamine", "setting": "[1]; [5]", "value": 156, "unit": "%"}, {"measurement": "thyroid uptake of 123I vs placebo", "setting": "thyroid uptake of 123I; 5, 40 and 100 mg", "value": "no differences from placebo"}, {"measurement": "reduction of thyroid uptake of 123I vs placebo", "setting": "thyroid uptake of 123I; single 200 mg dose", "value": "significantly greater than placebo"}, {"measurement": "AUC, greater in women than in men", "setting": "[2]; both, human, 40 mg", "value": "approximately 43%"}, {"measurement": "Cmax, greater in women than in men", "setting": "[2]; both, human, 40 mg", "value": "approximately 23%"}, {"measurement": "Tmax for the radioactivity in plasma", "setting": "[2]; human", "value": "1 to 2", "unit": "h"}, {"measurement": "terminal T1/2 for total radioactivity in plasma", "setting": "[2]; human", "value": "~100", "unit": "h"}, {"measurement": "Cmax or AUC, fast vs slow acetylator phenotype", "setting": "[2]", "value": "No significant differences"}, {"measurement": "T½, women vs men", "setting": "[2]", "value": "longer in women than in men"}, {"measurement": "accumulation with multiple dosing", "setting": "[2]", "value": "no significant accumulation"}, {"measurement": "decrease in blood pressure 4 hours after dosing", "setting": "[3]", "value": "−13", "unit": "mmHg"}, {"measurement": "urinary dopamine levels", "setting": "[4]; 40 mg and 200 mg, after 10 days of dosing", "value": "increased"}, {"measurement": "mean supine plasma dopamine/norepinephrine ratio vs placebo", "setting": "[4]; 200 mg", "value": "significant increase"}]}
